For series [1], the system named is S. aureus strain NCTC 8325. Nature of the series: liquid culture-based hemolysis assay (secreted hemolysins, sheep red blood cells). It counts as cell-based. The procedure:
The inhibition of hemolysin production has thus been further analysed in liquid bacterial cultures in order to evaluate their potential effects on bacterial growth simultaneously. Besides AVU1Acid, AVU1AAc, AVU1AA and VK273 the following further compounds were tested in liquid bacterial cultures:
(§1) 1 ml of an appropriate bacterial broth for the standard laboratory S. aureus strain NCTC 8325 were inoculated with 1*10^6 cfu. The cultures were kept overnight at 37° C. with gentle shaking 300 rpm in the presence of compounds AVU1Acid, AVU1AAc, AVU1AA or VK273 according to the present invention at different concentrations or dimethyl sulfoxide (DMSO) as control. Different beta-lactone virulence inhibitors were used as reference compounds. Following overnight incubation the optical density was measured in order to determine the minimal inhibiting concentration (MIC), which is defined as the lowest concentration of an antimicrobial that will inhibit the visible growth of a microorganism after overnight incubation. A 100 μl fraction of the supernatant of the grown bacterial cultures was subsequently analysed for the content of secreted bacterial hemolysins by addition of sheep red blood cells (10% v/v in PBS) and the measurement of the optical density at 410 nm after 30 min incubation at 37° C.
The following results were obtained in further liquid culture-based hemolysis assays. Since the assays were performed at different times with different charges of sheep red blood cells AVU1 has been tested as a reference substance in each assay. The resulting EC50 values determined for the tested compounds have to be assessed with respect to the EC50 value determined for AVU1.

The nature of series [2]: stability in mouse plasma. It counts as in vitro ADME. The following applies: 100 μM, 37° C., 0-240 min; FIG. 8, FIG. 10. The procedure: (§2) We investigated the stability of the compound herein in plasma preparations in comparison the beta-lactone compounds. Human plasma was obtained lyophilized from Sigma and reconstituted in sterile H2O. For human plasma 3.8% trisodium citrate was used as anticoagulant. Mouse plasma was prepared from whole blood samples from SKH-1 and Balb/C mice using Lithium-Heparin as anticoagulant and pooled from at least three different donor animals. Plasma samples were sterile filtered and stored in aliquots at −20° C. […] Test compounds were diluted 1:100 from a DMSO stock solution to a final concentration of 100 μM in both human and mouse plasma prewarmed for 10 min in an orbital shaker to 37° C. Test compounds were further incubated at 37° C. in the orbital shaker. Samples were withdrawn at time points 0, 5, 10, 20, 30, 60, 120, 240 min and immediately quenched by the addition of an equal volume of ice-cold acetonitrile. Subsequently, all samples were spun at maximum speed in a microcentrifuge to pellet precipitated proteins and samples were prepared for LC-MS analysis. Compound quantification occurred through analysis via the LTQ-FT high resolution mass-spectrometer and XCalibur-Software purchased at Thermo Scientific, Dreieich, D-63303 Germany.

Series [3] concerns S. aureus strain NCTC 8325. Kind of series: minimal inhibiting concentration (MIC) in liquid bacterial culture. It is filed as cell-based. As to conditions: overnight 37° C., read-out: MIC. As for the experimental part:
as §1

Series [4] in a line: stability in human plasma. It counts as in vitro ADME. As to conditions: SKH-1 and Balb/C (mouse plasma); positive control at 100 μM in every experiment (human and mouse plasma), 37° C. As for the experimental part: as §2
Series [5] concerns the target T1, CIpP (Staphylococcus aureus, UniProt Q2G036).
T1 construct: Living S. aureus NCTC8325 cells from a fresh stationary liquid culture were aliquoted; endogenous in cells; host or cells: living S. aureus NCTC8325 cells
T1 sequence (Q2G036 1-195): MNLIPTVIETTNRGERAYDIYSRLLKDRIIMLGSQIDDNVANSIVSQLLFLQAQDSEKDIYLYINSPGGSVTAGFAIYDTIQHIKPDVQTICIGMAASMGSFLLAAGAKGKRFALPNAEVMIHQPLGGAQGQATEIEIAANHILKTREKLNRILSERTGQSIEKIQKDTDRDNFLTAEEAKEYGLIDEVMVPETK
Nature of the series: competitive ABPP proteome labeling of living S. aureus cells with U1P probe. It counts as binding. As to conditions: FIG. 4. The source says: The compound U1P was used as a probe for activity-based labeling (activity-based protein profiling, ABPP) of the S. aureus NCTC 8325 proteome, as described in WO 2009/106211.
The U1P ABPP probe represents the lead structures of the known beta-lactone CIpP inhibitors modified with a terminal alkyne group. This compound is both active in hemolysis inhibition and CIpP inhibition. The terminal alkyne group comprised in UIP can be used for appending a fluorophore such as rhodamine-azide using click chemistry (1,3-dipolar Huisgen cycloaddition), which allows to scan the proteome of S. aureus for possible covalent binding partners. This compound consistently labels CIpP protease in a covalent manner in S. aureus proteomes.
The inventors used this compound in order to investigate whether compounds according to the present invention are able to reduce or suppress by non-covalent binding the covalent binding of the U1P ABPP probe to proteins of the S. aureus proteome. For a detailed description of the technique underlying these experiments see T. Böttcher, M. Pitscheider S. A. Sieber, Angew Chem Int Ed Engl. 2010, 2680.
Living S. aureus NCTC8325 cells from a fresh stationary liquid culture were aliquoted to equivalents of 1 ml of OD600=2. Bacterial cells were washed and resuspended in 100 μl PBS. Bacterial cell aliquots were then pre-incubated with the compounds AVU1AA or VK273 of the invention for 1 h at RT at final concentrations of 5 or 10 mM. Subsequently, the covalent ABPP probe UIP was added to a final concentration of 100 μM for 30 min at RT. After the competitive labeling procedure bacterial cells were washed twice, disrupted and labeled with rhodamine-azide using click chemistry. The labeled S. aureus proteome samples were separated by SDS-PAGE and visualized using fluorescence scanning.

The target of series [6] is T2, CIpP protease from S. aureus NCTC8325 (SaCIpP) (Staphylococcus aureus, UniProt Q2G036).
T2 construct: made in house; host or cells: E. coli
T2 sequence (Q2G036 1-195): T1 sequence (Q2G036 1-195)
Nature of the series: in vitro inhibition of recombinant S. aureus CIpP with SLY-AMC substrate. It counts as biochemical. The following applies: inhibitor 2 mM (1000×), 30 min RT; SLY-AMC 200 μM; FIG. 3. As for the experimental part:
The CIpP protease from S. aureus NCTC8325 (SaCIpP) was recombinantly overexpressed in E. coli and purified in order to investigate enzyme inhibition using SLY-AMC (N-succinyl-Leu-Tyr-7-amido-4-methylcoumarin) as fluorogenic model substrate.
Precisely, 9 μl of SaCIpP in buffered solution (final concentration 0.05 mg/ml, 2 μM; buffer: 100 mM NaCl, 20 mM Tris, pH 7.0) were incubated in the presence of 1 μl of various inhibitors (final concentration 2 mM=1000×) for 30 min at room temperature (RT). Subsequently, SLY-AMC was added to a final concentration of 200 μM and the increase in fluorescence due to enzymatic substrate proteolysis was measured using a TECAN GENios Pro™ plate reader at 380/440 nm (excitation/emission) at time intervals of 60 s over 40 min at 37° C. The enzymatic activity was determined as the slope of fluorescence (2=440 nm) over time. As positive controls, the in vivo active beta-lactone compound AVU1 (“U1”; WO 2009/106211) and the in vitro potent CIpP beta-lactone inhibitor D3 (WO 2009/106211) were employed.

SMILES strings stand for the structures. Like-named read-outs stand apart in the source and are kept apart here.

`C=CCCCCCCC[C@H]1C(=O)O[C@@H]1CCc1ccccc1` [AVU1, reference compound]: the half-maximal effective concentration (EC50) (commonly the concentration at which the effect is half-maximal) in series [1] (Staphylococcus aureus, NCTC8325, Erythrocyte, Assay 1, hemolysin production) was 142 µM; in series [1] (Staphylococcus aureus, NCTC8325, Erythrocyte, Assay 2, hemolysin production, assess relative to AVU1), 10 to 50 µM; in series [1] (Staphylococcus aureus, NCTC8325, Erythrocyte, Assay 3, hemolysin production, assess relative to AVU1) it was 50 to 100 µM; in series [1] (Staphylococcus aureus, NCTC8325, Erythrocyte, Assay 4, hemolysin production, assess relative to AVU1) it was 31 µM. For the same compound, the “stability in mouse plasma” value in series [2] was “degraded within a few minutes”. Moreover, the MIC (in general, the smallest concentration in the dilution series that meets the test's criterion for growth inhibition) was more than 1000 µM in series [3] (Assay 2); more than 1000 µM in series [3] (Assay 3); more than 1000 µM in series [3] (Assay 4); more than 1000 µM in series [3] (Staphylococcus aureus, NCTC8325, Assay 1).
`CCN(CC)CCOC(=O)c1ccc(N)cc1` [Procaine]: in series [4], the half-life (commonly how long it takes for the measured level to halve) at 100 μM was in the range of 6 to 9 min.
For `C#CC[C@H]1C(=O)O[C@@H]1CCc1ccccc1` [U1P, reference compound], in series [5] (in the absence of competitive compounds), the “labeling signal of probe” value is listed as “strong labeling signal with CIpP as the main target”.
The compound `C=CCCCCCCCC(CO)C(O)CCc1ccccc1` (stereo not shown) [VK273, 2-(non-8-enyl)-5-phenylpentandiol-1,3] returned an EC50 in series [1] (Assay 1, hemolysin production) of 24.8 µM. Further, the “labeling in the absence of U1P” value in series [5] (bacterial cells incubated with compound alone) is given as “did not result in any unspecific labeling”. Further, the “target binding of U1P after pre-incubation with competitor” value in series [5] (pre-incubation 1 h at RT at 5 or 10 mM, U1P 100 μM 30 min) is recorded as “significantly reduced target binding of U1P”. In addition, the “inhibition of SaCIpP” value in series [6] is recorded as “inhibit SaCIpP at an at least comparable level as the in vivo active beta-lactone reference compound AVU1”. Moreover, the MIC in series [3] (Assay 1) is more than 1000 µM.

The values are drawn from patent US20140323457A1, “BETA-O/S/N FATTY ACID BASED COMPOUNDS AS ANTIBACTERIAL AND ANTIPROTOZOAL AGENTS” (LUDWIG-MAXIMILIANS-UNIVERSITÄT MÜNCHEN, priority 2011, published 2014).
